Measurements as given in patent publication US20250197864A1, “LNCRNA TRANSCRIPTS IN MELANOMAGENESIS” (The Regents of the University of California, priority 2021, published 2025).

System: gene expression in D04 melanoma cells
Assay: RNA-Seq differential expression analysis (DESeq2)
Type: cell-based, human
Experimental: Total RNA was isolated using the RNeasy mini Kit (QIAGEN) following the manufacturer's protocol. Quality check for extracted RNA was done using 2100 Bioanalyzer (Agilent Technologies, USA) or Tapestation System (Agilent Technologies, USA). […] For samples used for identification of MAPK-responsive lncRNAs, paired-end, 101-bp sequencing was performed by Centrillion Genomic Services (Centrillion Biosciences, USA) on an Illumina HiSeq 2000. For DE gene analysis of ASO-transfected D04 samples, paired-end, 2×150-bp sequencing was performed by Genewiz (USA) on a Illumina HiSeq.
Sequence reads were aligned to the human genome (hg19) using TopHat (Version 2.0.11).
Differential expression (DE) analysis was done using DESeq2. Differentially expressed genes were defined by more than 1.5-fold changes (log 2 >0.58 or <−0.58) in expression with FDR<0.05. GO term analysis was done using DAVID Functional Annotation Clustering analysis.
To examine the biomolecular changes upon TRASH-inhibition in melanoma, D04 cells were treated with TRASH-ASOs (SEQ ID NO:15) and Control-ASOs and RNA was extracted and used for RNA-Seq. […] These GO terms consisted of genes encoding growth factors, tyrosine kinases, G protein coupled receptor subunits, and collagen subunits. Scatter plot diagram showing differential gene expression after TRASH-ASO treatment compared to Control-ASO treatment. (cut-off for significance was adjusted p-value <0.05). Data was obtained from RNA-Seq of D04 melanoma cells, treatment period was three days. (FIG. 5c)

Sequence: GACTGGAGATAATTAA (gapmer, pattern not given here) [SEQ ID NO: 15, GapmeR ASO targeting AC004540.4 (TRASH), exon region of both isoforms; used for in vitro experiments]
- log2FoldChange (44256 (ENSG00000186205)): 1.274
- log2FoldChange (44259 (ENSG00000144583)): 2.095
- log2FoldChange (A2M (ENSG00000175899)): −0.6461
- log2FoldChange (AADACP1 (ENSG00000240602)): 1.744
- log2FoldChange (AAGAB (ENSG00000103591)): −0.6248
- log2FoldChange (AAMDC (ENSG00000087884)): −0.6077
- log2FoldChange (ABCA7 (ENSG00000064687)): −0.6185
- log2FoldChange (AC004817.3 (ENSG00000269927)): 1.303
- log2FoldChange (AC004949.1 (ENSG00000283117)): −0.6056
- log2FoldChange (AC005144.1 (ENSG00000283517)): 1.578
- log2FoldChange (AC006058.1 (ENSG00000261786)): −0.7044
- log2FoldChange (AC009502.2 (ENSG00000231802)): 1.847
- log2FoldChange (AC010735.1 (ENSG00000261379)): −0.6617
- log2FoldChange (AC010735.2 (ENSG00000272622)): −0.6927
- log2FoldChange (AC011944.1 (ENSG00000177699)): 1.481
- log2FoldChange (AC022007.1 (ENSG00000206567)): −0.6327
- log2FoldChange (AC022031.2 (ENSG00000267284)): −0.6353
- log2FoldChange (AC048341.1 (ENSG00000257354)): −0.6321
- log2FoldChange (AC073130.1 (ENSG00000237870)): 1.474
- log2FoldChange (AC090192.2 (ENSG00000253227)): 1.561
- log2FoldChange (AC090204.1 (ENSG00000247134)): −0.6895
- log2FoldChange (AC090505.1 (ENSG00000234805)): 1.656
- log2FoldChange (AC099552.1 (ENSG00000217825)): 2.619
- log2FoldChange (AC105942.1 (ENSG00000235501)): −0.6072
- log2FoldChange (AC117386.2 (ENSG00000243944)): −0.661
- log2FoldChange (AC131254.1 (ENSG00000248964)): 2
- log2FoldChange (AC133785.1 (ENSG00000233221)): 1.627
- log2FoldChange (AC135782.1 (ENSG00000256982)): 1.563
- log2FoldChange (AC139491.2 (ENSG00000248596)): 1.322
- log2FoldChange (AC237221.1 (ENSG00000260653)): 1.665
- log2FoldChange (AC245041.1 (ENSG00000273760)): 1.261
- log2FoldChange (ACTBL2 (ENSG00000169067)): −0.6731
- log2FoldChange (ACTR3C (ENSG00000106526)): −0.7012
- log2FoldChange (ADCYAP1R1 (ENSG00000078549)): 2.87
- log2FoldChange (ADGRA2 (ENSG00000020181)): −0.7029
- log2FoldChange (ADGRB1 (ENSG00000181790)): 1.472
- log2FoldChange (ADGRE4P (ENSG00000268758)): 1.451
- log2FoldChange (ADPRHL1 (ENSG00000153531)): 3.706
- log2FoldChange (ADRB2 (ENSG00000169252)): 1.354
- log2FoldChange (AHNAK2 (ENSG00000185567)): 1.379
- log2FoldChange (AHR (ENSG00000106546)): −0.6391
- log2FoldChange (AKNAD1 (ENSG00000162641)): 1.238
- log2FoldChange (AL161431.1 (ENSG00000275216)): 1.631
- log2FoldChange (AL356234.3 (ENSG00000283265)): 2.668
- log2FoldChange (AL365181.2 (ENSG00000272068)): 1.422
- log2FoldChange (AL390334.1 (ENSG00000258932)): −0.6259
- log2FoldChange (AL512488.1 (ENSG00000230439)): 1.824
- log2FoldChange (AL590004.4 (ENSG00000260604)): 1.853
- log2FoldChange (ALMS1-IT1 (ENSG00000230002)): 1.247
- log2FoldChange (ALOXE3 (ENSG00000179148)): 4.94
- log2FoldChange (ALPI (ENSG00000163295)): 7.153
- log2FoldChange (ANKH (ENSG00000154122)): −0.6414
- log2FoldChange (ANO2 (ENSG00000047617)): 2.643
- log2FoldChange (ANXA8 (ENSG00000265190)): 1.513
- log2FoldChange (ANXA8L1 (ENSG00000264230)): 1.299
- log2FoldChange (APOA4 (ENSG00000110244)): 7.547
- log2FoldChange (APOE (ENSG00000130203)): −0.6001
- log2FoldChange (AQP1 (ENSG00000240583)): −0.6784
- log2FoldChange (ARC (ENSG00000198576)): 1.257
- log2FoldChange (ARHGDIB (ENSG00000111348)): 1.501
- log2FoldChange (ARSA (ENSG00000100299)): −0.6363
- log2FoldChange (ATG9B (ENSG00000181652)): 1.674
- log2FoldChange (ATP2B2 (ENSG00000157087)): 2.6809
- log2FoldChange (B3GALT5 (ENSG00000183778)): 3.38
- log2FoldChange (B4GALNT3 (ENSG00000139044)): −0.6558
- log2FoldChange (BAALC-AS1 (ENSG00000247081)): −0.5946
- log2FoldChange (BEX5 (ENSG00000184515)): 1.778
- log2FoldChange (BHLHB9 (ENSG00000198908)): −0.6347
- log2FoldChange (BIRC7 (ENSG00000101197)): 1.54
- log2FoldChange (BVES (ENSG00000112276)): −0.7008
- log2FoldChange (C1orf21 (ENSG00000116667)): −0.5945
- log2FoldChange (C1orf116 (ENSG00000182795)): 1.382
- log2FoldChange (C3 (ENSG00000125730)): −0.6635
- log2FoldChange (C5 (ENSG00000106804)): −0.69
- log2FoldChange (C7orf57 (ENSG00000164746)): 1.917
- log2FoldChange (C7orf69 (ENSG00000136275)): −0.6813
- log2FoldChange (C10orf55 (ENSG00000222047)): 2.331
- log2FoldChange (C10orf90 (ENSG00000154493)): −0.626
- log2FoldChange (C11orf86 (ENSG00000173237)): 1.233
- log2FoldChange (C15orf54 (ENSG00000175746)): 1.489
- log2FoldChange (C16orf45 (ENSG00000166780)): −0.6742
- log2FoldChange (CACNA1D (ENSG00000157388)): −0.6311
- log2FoldChange (CACNA1H (ENSG00000196557)): 1.733
- log2FoldChange (CALB2 (ENSG00000172137)): 1.839
- log2FoldChange (CARMIL1 (ENSG00000079691)): −0.6828
- log2FoldChange (CASC9 (ENSG00000249395)): −0.6279
- log2FoldChange (CASTOR3 (ENSG00000239521)): −0.6683
